Literature values in patent US20240424000A1, “LONG-ACTING INTRA-ARTICULAR DOSAGE FORMS CONTAINING FLUTICASONE PROPIONATE AND USE THEREOF” (Eupraxia Pharmaceuticals Inc., priority 2023, published 2024).

System: cartilage
Details: IA every 12 weeks for 2 years; McAlindon et al. 2017

In the case of `CC1(C)O[C@@H]2C[C@H]3[C@@H]4CCC5=CC(=O)C=C[C@]5(C)[C@@]4(F)[C@@H](O)C[C@]3(C)[C@]2(C(=O)CO)O1` [TCA, triamcinolone acetonide], the “effect of chronic exposure on cartilage” value is given as “led to increased cartilage loss”.
